{
  "source": "patent US7368578B2",
  "about": "“Five-membered heterocyclic compounds” (Takeda Pharmaceutical Company Limited, priority 2002, dated 2008)",
  "data": [
    {"biological_target": "T1, human PPARγ1 (Homo sapiens, UniProt P37231)", "T1 construct": "expressed in transfected cells; host or cells: CHO-K1 cells stably transfected with pVgRXR2-hPPARγ and reporter plasmid pGL3-4ERPP-TK neo", "T1 sequence (P37231 1-477 isoform P37231-2)": "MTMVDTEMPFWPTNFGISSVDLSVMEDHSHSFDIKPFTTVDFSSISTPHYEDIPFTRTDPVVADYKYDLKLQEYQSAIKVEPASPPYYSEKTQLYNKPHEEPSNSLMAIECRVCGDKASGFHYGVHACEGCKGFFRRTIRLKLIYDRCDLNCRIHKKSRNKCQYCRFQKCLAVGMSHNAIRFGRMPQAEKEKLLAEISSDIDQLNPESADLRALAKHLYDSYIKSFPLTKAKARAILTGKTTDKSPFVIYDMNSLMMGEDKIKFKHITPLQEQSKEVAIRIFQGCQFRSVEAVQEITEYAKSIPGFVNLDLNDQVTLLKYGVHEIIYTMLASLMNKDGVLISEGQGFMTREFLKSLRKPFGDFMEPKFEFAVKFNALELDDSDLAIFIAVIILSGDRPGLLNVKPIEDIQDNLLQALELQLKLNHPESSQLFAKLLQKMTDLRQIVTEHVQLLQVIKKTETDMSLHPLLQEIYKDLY", "T1 sequence (P19793 1-462 partner)": "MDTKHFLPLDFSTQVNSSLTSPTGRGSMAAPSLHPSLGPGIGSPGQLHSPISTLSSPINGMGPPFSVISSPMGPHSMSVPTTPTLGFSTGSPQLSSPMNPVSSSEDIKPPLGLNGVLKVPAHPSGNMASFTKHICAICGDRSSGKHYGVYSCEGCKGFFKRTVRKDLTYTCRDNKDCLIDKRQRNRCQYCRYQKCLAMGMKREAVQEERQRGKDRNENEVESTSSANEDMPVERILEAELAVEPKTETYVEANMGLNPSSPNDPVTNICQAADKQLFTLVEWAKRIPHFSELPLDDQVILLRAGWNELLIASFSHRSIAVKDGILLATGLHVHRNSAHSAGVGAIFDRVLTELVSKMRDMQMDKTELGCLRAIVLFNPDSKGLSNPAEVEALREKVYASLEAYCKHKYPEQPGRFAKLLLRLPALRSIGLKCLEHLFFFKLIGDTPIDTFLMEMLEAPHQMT", "assay": "Human PPARγ1 antagonist assay (luciferase reporter in PPARγ:RXRα:4ERPP/CHO-K1 cells)", "type": "cell-based", "conditions": "test compound 10^−5 M, 10 nM compound A as stimulant, luciferase activity, 24 hrs, read-out: Inhibitory rate (%)", "protocol": "(§1) PPARγ:RXRα:4ERPP/CHO-K1 cells (obtained in Reference Example 5a) cultured in Ham's F-12 medium (GIBCO, Inc.) supplemented with 10% fetal bovine serum (TRACE SCIENTIFIC, Ltd.) were seeded in a well of a 96 well white plate at 2×10^4 cells/well and cultured under 37° C. 5% CO2 conditions for 24 hrs. After removal of the medium, Ham's F-12 medium (GIBCO) containing 60 μl of 0.1% BSA (not containing fatty acid) (Wako Pure Chemical Industries, Ltd.), 20 μl of 10^−5M or 10^−6 M test compound and 20 μl of compound A having a final concentration of 10 nM as a stimulant were added, and the cells were cultured under 37° C. 5% CO2 conditions for 24 hrs. After removal of the medium, 40 μl of Pickagene LT7.5 (Wako Pure Chemical Industries, Ltd.) 2-fold diluted with HBSS (HANKS' BALANCED SALT SOLUTION) (BIO WHITTAKER Inc.) was added. After stirring, luciferase activity was measured using 1420 ARVO Multilabel Counter (Wallac, Inc.). In addition, a test similar to the above was conducted for the non-use of the aforementioned test compound alone and for the non-use of the aforementioned test compound and compound A to determine the luciferase activity.\n(§2) The human PPARγ1 antagonistic activity of the test compound was evaluated using percentages (% inhibition) wherein the luciferase activity when 10 nM compound A alone was added was 0%, and the luciferase activity when the test compound and compound A were not added was 100%. The concentration of the test compound was 10^−5 M for the compounds of Example 42 and 315 and 10^−6 M for other test compounds.\n(§3) After a CHO-K1 cell cultured in a cell culture flask (150 cm^2) (produced by Corning Costar Corporation, USA) containing Ham's F-12 medium (produced by Life Technologies, Inc., USA) supplemented with 10% fetal bovine serum (produced by Life Technologies, Inc., USA) was detached by treating with 0.5 g/L trypsin-0.2 g/L EDTA (ethylenediaminetetraacetic acid) (produced by Life Technologies, Inc., USA), the cell was washed with PBS (phosphate-buffered saline) (produced by Life Technologies, Inc., USA), centrifuged (1000 rpm, 5 minutes), and then suspended in PBS. Subsequently, the DNA was introduced into the cells under the conditions shown below using GENE PULSER (produced by Bio-Rad Laboratories, USA).\n(§4) Namely, to a cuvette having a 0.4 cm gap, added were 8×10^6 cells and 10 μg of plasmid pVgRXR2-hPPARγ obtained in Reference Example 4a and 10 μg of reporter plasmid pGL3-4ERPP-TK neo obtained in Reference Example 2a, which was subjected to electroporation at the voltage of 0.25 kV under the capacitance of 960 μF. Subsequently, the cell was transferred into a Ham's F-12 medium containing 10% fetal bovine serum and cultured for 24 hours and then the cells were detached again and centrifuged, and then suspended in HAM F12 medium containing 10% fetal bovine serum supplemented with 500 μg/ml of GENETICIN (produced by Life Technologies, Inc., USA) and 250 μg/ml of ZEOCIN (produced by Invitrogen, USA). The obtained suspension was diluted to the density of 10^4 cells/ml and inoculated to a 96-well plate (produced by Corning Costar Corporation, USA), which was cultured in a CO2 gas incubator at 37° C., whereby obtaining a GENETICIN- and ZEOCIN-resistant transformant. Subsequently, after the transformant cell line thus obtained was cultured in a 24-well plate (produced by Corning Costar Corporation, USA), selected was a cell line in which the luciferase was expressed and induced, i.e., PPARγ:RXRα:4ERPP/CHO-K1 cell by the addition of 10 μM pioglitazone hydrochloride.", "units": {"inhibition at 10 µM": "%"}, "values": [
      {"smiles": "CCOP(=O)(/C=C/c1cn(-c2ccccc2)nc1OCc1ccc(OCc2nc(/C=C/C(=O)O)oc2C)c(OC)c1)OCC", "note": "[Example 315, (2E)-3-[4-({4-[({4-[(E)-2-(diethoxyphosphoryl)ethenyl]-1-phenyl-1H-pyrazol-3-yl}oxy)methyl]-2-methoxyphenoxy}methyl)-5-methyl-1,3-oxazol-2-yl]-2-propenoic acid]", "inhibition at 10 µM": 112}
    ]},
    {"biological_target": "T1, human PPARγ1", "assay": "Human PPARγ1 antagonist assay (luciferase reporter in PPARγ:RXRα:4ERPP/CHO-K1 cells)", "type": "cell-based", "conditions": "test compound 10^−6 M, 10 nM compound A as stimulant, luciferase activity, 24 hrs, read-out: Inhibitory rate (%)", "protocol": "as §1, §2, §3, §4", "units": {"inhibition at 1 µM": "%"}, "values": [
      {"smiles": "CCOP(=O)(/C=C/c1cn(-c2ccccc2)nc1OCc1ccc(OCc2nc(-c3cccc(CC(=O)O)c3)oc2C)c(OC)c1)OCC", "note": "[Example 249, {3-[4-({4-[({4-[(E)-2-(diethoxyphosphoryl)ethenyl]-1-phenyl-1H-pyrazol-3-yl}oxy)methyl]-2-methoxyphenoxy}methyl)-5-methyl-1,3-oxazol-2-yl]phenyl}acetic acid]", "inhibition at 1 µM": 108},
      {"smiles": "COc1cc(COc2nn(-c3ccccc3)cc2/C=C/c2csc(C(C)C)n2)ccc1OCc1nc(-c2ccc(CC(=O)O)cc2)oc1C", "note": "[Example 361, {4-[4-({4-[({4-[(E)-2-(2-isopropyl-1,3-thiazol-4-yl)ethenyl]-1-phenyl-1H-pyrazol-3-yl}oxy)methyl]-2-methoxyphenoxy}methyl)-5-methyl-1,3-oxazol-2-yl]phenyl}acetic acid]", "inhibition at 1 µM": 110},
      {"smiles": "CCOP(=O)(CCc1cn(-c2ccccc2)nc1OCc1ccc(OCc2nc(-c3ccco3)oc2C)c(OC)c1)OCC", "note": "[Example 100, diethyl 2-{3-[(4-{[2-(2-furyl)-5-methyl-1,3-oxazol-4-yl]methoxy}-3-methoxybenzyl)oxy]-1-phenyl-1H-pyrazol-4-yl}ethylphosphonate]", "inhibition at 1 µM": 74},
      {"smiles": "CCOP(=O)(/C=C/c1cn(-c2ccccc2)nc1OCc1ccc(OCc2nc(-c3cccc(C(N)=O)c3)oc2C)c(OC)c1)OCC", "note": "[Example 239, diethyl (E)-2-(3-{[4-({2-[3-(carbamoyl)phenyl]-5-methyl-1,3-oxazol-4-yl}methoxy)-3-methoxybenzyl]oxy}-1-phenyl-1H-pyrazol-4-yl)ethenylphosphonate]", "inhibition at 1 µM": 116},
      {"smiles": "CCc1nc(/C=C/c2cn(-c3ccccc3)nc2OCc2ccc(OCc3nc(-c4cccc(C(=O)O)c4)oc3C)c(OC)c2)co1", "note": "[Example 307]", "inhibition at 1 µM": 108},
      {"smiles": "CCOP(=O)(/C=C/c1cn(-c2ccccc2)nc1OCc1ccc(OCc2nc(-c3cccc(C(=O)OC)c3)oc2C)c(OC)c1)OCC", "note": "[Example 211, methyl 3-[4-({4-[({4-[(E)-2-(diethoxyphosphoryl)ethenyl]-1-phenyl-1H-pyrazol-3-yl}oxy)methyl]-2-methoxyphenoxy}methyl)-5-methyl-1,3-oxazol-2-yl]benzoate]", "inhibition at 1 µM": 110},
      {"smiles": "CCOP(=O)(/C=C/c1cn(-c2ccccc2)nc1OCc1ccc(OCc2csc(N3CCOCC3)n2)c(OC)c1)OCC", "note": "[Example 191, diethyl (E)-2-{3-[(3-methoxy-4-{[2-(morpholin-4-yl)-1,3-thiazol-4-yl]methoxy}benzyl)oxy]-1-phenyl-1H-pyrazol-4-yl}ethenylphosphonate]", "inhibition at 1 µM": 79},
      {"smiles": "CCOP(=O)(/C=C/c1cn(-c2ccccc2)nc1OCc1ccc(OCc2nc(-c3cccc(-c4nnn[nH]4)c3)oc2C)c(OC)c1)OCC", "note": "[Example 336, {(E)-2-(3-{[3-methoxy-4-({5-methyl-2-[3-(1H-tetrazol-5-yl)phenyl]-1,3-oxazol-4-yl}methoxy)benzyl]oxy}-1-phenyl-1H-pyrazol-4-yl)ethenyl}phosphonate diethyl]", "inhibition at 1 µM": 102},
      {"smiles": "CCc1nc(/C=C/c2cn(-c3ccccc3)nc2OCc2ccc(OCc3nc(-c4cccc(C(=O)O)c4)oc3C)c(OC)c2)cs1", "note": "[Example 224, 3-[4-({4-[({4-[(E)-2-(2-ethyl-1,3-thiazol-4-yl)ethenyl]-1-phenyl-1H-pyrazol-3-yl}oxy)methyl]-2-methoxyphenoxy}methyl)-5-methyl-1,3-oxazol-2-yl]benzoic acid]", "inhibition at 1 µM": 112},
      {"smiles": "CCOP(=O)(/C=C/c1cn(-c2ccccc2)nc1OCc1ccc(OCc2nc(-c3ccccc3)oc2C)c(OC)c1)OCC", "note": "[Example 146, diethyl (E)-2-[3-({3-methoxy-4-[(5-methyl-2-phenyl-1,3-oxazol-4-yl)methoxy]benzyl}oxy)-1-phenyl-1H-pyrazol-4-yl]ethenylphosphonate]", "inhibition at 1 µM": 111},
      {"smiles": "COc1cc(COc2nn(-c3ccccc3)cc2/C=C/c2coc(C(C)C)n2)ccc1OCc1nc(-c2ccc(CC(=O)O)cc2)oc1C", "note": "[Example 370, {4-[4-({4-[({4-[(E)-2-(2-isopropyl-1,3-oxazol-4-yl)ethenyl]-1-phenyl-1H-pyrazol-3-yl}oxy)methyl]-2-methoxyphenoxy}methyl)-5-methyl-1,3-oxazol-2-yl]phenyl}acetic acid]", "inhibition at 1 µM": 111},
      {"smiles": "CCOP(=O)(/C=C/c1cn(-c2ccccc2)nc1OCc1ccc(OCc2nc(-c3ccc(CC(=O)O)cc3)oc2C)c(OC)c1)OCC", "note": "[Example 241, {4-[4-({4-[({4-[(E)-2-(diethoxyphosphoryl)ethenyl]-1-phenyl-1H-pyrazol-3-yl}oxy)methyl]-2-methoxyphenoxy}methyl)-5-methyl-1,3-oxazol-2-yl]phenyl}acetic acid]", "inhibition at 1 µM": 113},
      {"smiles": "COc1cc(COc2nn(-c3ccccc3)cc2CO)ccc1OCc1nc(-c2ccco2)oc1C", "note": "[Example 75, {3-[(4-{[2-(2-furyl)-5-methyl-1,3-oxazol-4-yl]methoxy}-3-methoxybenzyl)oxy]-1-phenyl-1H-pyrazol-4-yl}methanol]", "inhibition at 1 µM": 70}
    ]}
  ]
}
